Legend:
[1] = Measurement of the improvement in combability: combing force on hair strands; details: 1 wt. % creatine in shampoo of Example 2 vs same shampoo without creatine (1.43 N to 1.21 N); t-test significance level 97.5%
Text: Measurement of the Improvement in Combability The combability of hair is also an important parameter for describing hair quality. Various external influences such as certain cosmetic treatments (bleaching, dyeing permanent waving), weathering and frequent combing and brushing cause a deterioration in hair combability which is attributable to damage to the cuticula. The principle of most methods for measuring combability consists of measuring the force (combing force) required to move a comb through a hair strand under exactly defined boundary conditions. Within the framework of our own study, an automated apparatus was used for this purpose. […] The strands were then repeatedly and automatically combed one after another at a constant rate of speed, and for each combing the combing force N (newton) was recorded as a function of the combing path (strand length). The reported combing force values were finally obtained by averaging the combing forces over the combing path. The lower the combing force, the better is the combability of the hair.

[2] = Measurement of the repair effect: tensile elongation measurement, strand tensile strength of hair; details: 1 wt. % creatine in shampoo of Example 2 vs same shampoo without creatine (14.8 to 15.5 cN/tex); t-test significance level 99.9%
Description: Measurement of the Repair Effect
To determine the breaking force for hair, which is an indicator of the structural integrity of the hair cortex and is thus a measure of the degree of damage, common tensile elongation measurements were performed. From each hair strand, 20 individual hairs were selected and the individual hair diameters were measured with a computer-controlled laser micrometer. The force required to break the individual hairs was then determined with a tensile elongation tester (MTT 160/160 Series Miniature Tensile Tester, serial No. 600.95.05.001, DIA-STRON Ltd, England).
From these individual test results, which because of the differing hair diameters are different, the strand tensile strength (STS) was determined by calculating from the individual values the tensile strength for a hair diameter of 0.08 mm (mean diameter) taking into account the hair diameters. By taking into account the hair density, a conversion to the unit for strand tensile strength (cN/tex) was finally made. The higher the numerical value of the strand tensile strength, the lower is the hair damage.

CN(CC(=O)O)C(=N)N [creatine, M-amidinosarcosine]
reduction of combing force (wet combability) [1]: 15.3% | increase of strand tensile strength [2]: 4.7%
